From PMC10569036

Experiments:
[1] = shake flask on a mixture of 185; loss from the water phase only; LC-QTOF peak areas; conditions: room
[2] = shake flask on a mixture of 185; loss from the water phase only; LC-Orbitrap peak areas; conditions: room

log partition 1-octanol / HPLC water, unbuffered, traces of methanol / DMSO [2] [log10]	log partition butyl acetate / HPLC water, unbuffered, traces of methanol / DMSO [2] [log10]	log partition chloroform / HPLC water, unbuffered, traces of methanol / DMSO [2] [log10]	log partition cyclohexane / HPLC water, unbuffered, traces of methanol / DMSO [2] [log10]	log partition dichloromethane / HPLC water, unbuffered, traces of methanol / DMSO [2] [log10]	log partition n-hexane / HPLC water, unbuffered, traces of methanol / DMSO [2] [log10]	log partition n-octane / HPLC water, unbuffered, traces of methanol / DMSO [2] [log10]	log partition n-undecane / HPLC water, unbuffered, traces of methanol / DMSO [2] [log10]	log partition oleylalcohol / HPLC water, unbuffered, traces of methanol / DMSO [2] [log10]	log partition toluene / HPLC water, unbuffered, traces of methanol / DMSO [2] [log10]	Structure (SMILES)	log partition 1-octanol / HPLC water, unbuffered, traces of methanol / DMSO [1] [log10]	log partition butyl acetate / HPLC water, unbuffered, traces of methanol / DMSO [1] [log10]	log partition chloroform / HPLC water, unbuffered, traces of methanol / DMSO [1] [log10]	log partition cyclohexane / HPLC water, unbuffered, traces of methanol / DMSO [1] [log10]	log partition dichloromethane / HPLC water, unbuffered, traces of methanol / DMSO [1] [log10]	log partition n-hexane / HPLC water, unbuffered, traces of methanol / DMSO [1] [log10]	log partition n-octane / HPLC water, unbuffered, traces of methanol / DMSO [1] [log10]	log partition n-undecane / HPLC water, unbuffered, traces of methanol / DMSO [1] [log10]	log partition oleylalcohol / HPLC water, unbuffered, traces of methanol / DMSO [1] [log10]	log partition toluene / HPLC water, unbuffered, traces of methanol / DMSO [1] [log10]
										O=S(=O)(O)C(F)(F)F	-1.49	-1.234	1.635	-0.7044	1.509	-0.8208	-0.9229	-0.955	-1.56	-0.8212
0.06578	-0.6544	0.08964	-0.4267	-0.4317	-0.4698	-0.4633	-0.5006	-0.3469	-0.3594	CC(C)(C)c1ccc(O)c(O)c1										
-0.191	-0.07834	0.168	-0.8356	0.3352	-1.06	-1.182	-1.177	-0.5168	-0.2474	CCCCC(CC)COC(=O)c1ccccc1C(=O)O (centres unmarked)										
-0.06689	0.7696	1.426	-0.7757	1.412	-1.074	-1.39	-1.078	-0.5711	-0.2898	CC(=O)CCc1ccc(OC(C)=O)cc1										
0.3863	-0.3544	-0.3218	-1.47	-0.9957	-1.176	-1.209	-1.567	-0.4024	-0.8939	Nc1nc(Cl)nc2c1ncn2[C@H]1C[C@H](O)[C@@H](CO)O1										
0.3821	-0.9282	-0.4983	-0.222	-0.6955	0.5227	0.6442	0.226	-0.06645	-0.371	CC(=O)c1ccc2ccccc2c1										
-0.5214	-0.773	-0.7717	-1.167	-0.6352	-1.755	-1.639	-1.584	-1.087	-1.18	CCCCCCCCCCCC(=O)OCC(O)CO (centres unmarked)										
1.201	1.711	1.238	-0.6663	1.437	-0.7941	-0.5719	-1.115	1.559	0.5402	CC(C)Nc1nc(N)nc(Cl)n1										
0.5136	0.7692	0.52		0.8573				0.7926	0.01564	CC(=O)Nc1ccc(C)cc1C										
0.1434	0.1277	1.369	-0.01168	1.153	0.1369	-0.1323	-0.3053	-0.05327	0.5377	Cc1ccc(N)c(S(=O)(=O)O)c1										

Structure (SMILES)	log partition 1-octanol / HPLC water, unbuffered, traces of methanol / DMSO [2] [log10]	log partition butyl acetate / HPLC water, unbuffered, traces of methanol / DMSO [2] [log10]	log partition chloroform / HPLC water, unbuffered, traces of methanol / DMSO [2] [log10]	log partition cyclohexane / HPLC water, unbuffered, traces of methanol / DMSO [2] [log10]	log partition dichloromethane / HPLC water, unbuffered, traces of methanol / DMSO [2] [log10]	log partition n-hexane / HPLC water, unbuffered, traces of methanol / DMSO [2] [log10]	log partition n-octane / HPLC water, unbuffered, traces of methanol / DMSO [2] [log10]	log partition n-undecane / HPLC water, unbuffered, traces of methanol / DMSO [2] [log10]	log partition oleylalcohol / HPLC water, unbuffered, traces of methanol / DMSO [2] [log10]	log partition toluene / HPLC water, unbuffered, traces of methanol / DMSO [2] [log10]	log partition 1-octanol / HPLC water, unbuffered, traces of methanol / DMSO [1] [log10]	log partition butyl acetate / HPLC water, unbuffered, traces of methanol / DMSO [1] [log10]	log partition chloroform / HPLC water, unbuffered, traces of methanol / DMSO [1] [log10]	log partition cyclohexane / HPLC water, unbuffered, traces of methanol / DMSO [1] [log10]	log partition dichloromethane / HPLC water, unbuffered, traces of methanol / DMSO [1] [log10]	log partition n-hexane / HPLC water, unbuffered, traces of methanol / DMSO [1] [log10]	log partition n-octane / HPLC water, unbuffered, traces of methanol / DMSO [1] [log10]	log partition n-undecane / HPLC water, unbuffered, traces of methanol / DMSO [1] [log10]	log partition oleylalcohol / HPLC water, unbuffered, traces of methanol / DMSO [1] [log10]	log partition toluene / HPLC water, unbuffered, traces of methanol / DMSO [1] [log10]
Cc1cc(SCc2sc(-c3ccc(C(F)(F)F)c(F)c3)nc2C)ccc1OCC(=O)O	-0.1342	0.8792	0.4425	-1.06	0.6672	-1.28	-0.8266	-1.326	0.4514	-0.01784										
CC(=O)/C=C/c1ccccc1	0.1948	-0.04199	-0.02485	-0.3829	-0.0685	-0.3815	-0.655	-0.7862	-0.0887	-0.2533										
Nc1ccc(/N=N/c2ccccc2)cc1	1.65	1.2	1.001	1.333	1.434	1.192	1.439	1.239	1.015	0.9966										
CCCCNS(=O)(=O)c1ccccc1	0.09093	-0.4267	0.044	-0.2649	-0.02662	-0.2215	-0.4356	-0.4781	0.1238	-0.1107										
Oc1c(Cl)ccc(Cl)c1Cl	-0.2337	-1.606	0.7523	0.2263	-0.3412	-0.04129	0.4223	-0.1707	-0.8397	-0.4023										
